Test results: patent publication US20240400582A1, “FOUR-MEMBERED FUSED RING COMPOUND AND PREPARATION METHOD AND USE THEREOF” (JIANGSU HANSOH PHARMACEUTICAL GROUP CO., LTD., priority 2021, published 2024)
One block for each compound: values may come before it.

What was measured:
[1] = test system: human chronic myeloid leukemia cell line KCL22-s xenograft tumor; assay: Anti-tumor efficacy in KCL22-s subcutaneous xenograft tumor model; format: in vivo, BALB/c nude mouse; settings: oral, dosing cycle 15 days
Procedure: To evaluate the efficacy of the test compound on the human chronic myeloid leukemia cell strain KCL22-s in the BALB/c nude mouse subcutaneous xenograft tumor model.
BALB/c nude mice, 8-10 weeks.
The resuscitated cells were placed in a cell culture flask (the cell type, date, name of the person for culture and so on were marked on the flask wall) and then placed in a CO2 incubator (the incubator temperature was 37° C. and the CO2 concentration was 5%) for incubation. • b, The cells were passaged. After passage, the cells continued to be cultured in the CO2 incubator. This process was repeated until the cell number met the in vivo drug efficacy requirements. • c, The cultured cells were collected and counted with a fully automatic cell counter.
• a, According to the tumor growth, the tumor was measured on the 15th day after inoculation and the tumor size was calculated.

KCL22-r = assay: Inhibition of proliferation of KCL22-r cells (CellTiter-Glo); format: cell-based; settings: Homo sapiens, 72 h, imatinib-resistant strain
From the text: (§1) To evaluate the inhibitory activity of the compounds of the present invention against proliferation of human erythroleukemia cells K562, human peripheral blood basophilic leukemia cells Ku812, and human chronic myelogenous leukemia cells KCL22-s and KCL22-r cultured in vitro.
(§2) CellTiter-Glo® Luminescent Cell Viability Assay was used to detect the inhibitory effect of drugs on tumor cell proliferation and growth. The logarithmic growth phase cells cultured overnight were directly taken, blown, mixed and counted, the cell density was adjusted according to different cell density requirements, and the cells were prepared into a cell suspension and plated on a 96-well plate. Drugs at different concentrations were added, three replicate wells were set for each concentration, and corresponding solvent controls were set. The maximum concentration of compound detected was 500 nM, with 3-fold gradient dilution, and a total of 9 concentrations (500-0.076 nM). […] The culture plate and its contents were equilibrated to room temperature, the CellTiter-Glo® reagent was added, the contents were mixed on a shaker for 3 min to induce cell lysis, the culture plate was further incubated at room temperature in the dark for 10 min, and the chemiluminescence signal value was determined by a microplate reader (BioTek SynergyH1).

Ku812 = assay: Inhibition of proliferation of Ku812 cells (CellTiter-Glo); format: cell-based; settings: Homo sapiens, 72 h
From the text: as §1, §2

ABL1 WT kinase = ABL1 WT kinase (Homo sapiens (Human), UniProt P00519); assay: In vitro enzymatic inhibitory activity against ABL1 WT kinase (capillary electrophoresis, EZ reader); format: biochemical; settings: maximum concentration 1 μM
Procedure: Capillary electrophoresis was used to detect the phosphorylation conversion rate of the substrate peptide to determine the IC50 value of the test compound for inhibiting the kinase (ABL1-WT). The maximum concentration of the compound tested in the test was 1000 nM, with 3-fold dilution, and a total of 12 concentrations (1000-0.0056 nM). First, an enzyme reaction system (the concentration of enzyme ABL1-WT was 1.3 nM, the concentration of substrate FLPeptide2 was 1.5 μM, and the reaction factor was 10 mM MgCl2) was prepared. After incubation at room temperature for 30 min, […] of 4×ATP solution was added to start the enzyme reaction. After reacting at room temperature for 90 min, the reaction was stopped by adding a stop buffer (containing 0.5 M EDTA). The sample was analyzed using an EZ reader (analysis conditions: pressure −1.5 PSI, upper voltage current −2250V, lower voltage current −500V, separation time 40 sec, and system delay 100.0 sec).
From the conversion rate read by EZ Reader, the remaining activity was calculated according to the following formula.
IC50 was calculated using XLfit, and IC50 was calculated by Formula 201 as the fitting formula.

K562 = assay: Inhibition of proliferation of K562 cells (CellTiter-Glo); format: cell-based; settings: Homo sapiens, 72 h
From the text: as §1, §2

Ba/F3 BCR-ABL1-G250E = assay: Inhibition of proliferation of Ba/F3 BCR-ABL1-G250E cells (CellTiter-Glo); format: cell-based; settings: Mus musculus, BaF3, 72 h
From the text: (§3) To evaluate the inhibitory activity of the compound of the present invention against proliferation of the Ba/F3 BCR-ABL1-T315I, Ba/F3 BCR-ABL1-E255K, Ba/F3 BCR-ABL1-E255V, and Ba/F3 BCR-ABL1-G250E mutation models of mouse primary B cells cultured in vitro.
(§4) CellTiter-Glo® Luminescent Cell Viability Assay was used to detect the inhibitory effect of drugs on tumor cell proliferation and growth. The logarithmic growth phase cells cultured overnight were directly taken, blown, mixed and counted, the cell density was adjusted according to different cell density requirements, and the cells were prepared into a cell suspension and plated on a 96-well plate. Drugs at different concentrations were added, 3 replicate wells were set for each concentration, and corresponding vehicle controls were eset. […] The maximum concentration of the compounds detected in other cells was 500 nM, with 3.16-fold gradient dilution, and a total of 9 concentrations (500-0.0503 nM). […] The culture plate and its contents were equilibrated to room temperature, the CellTiter-Glo® reagent was added, the contents were mixed on a shaker for 5 min to induce cell lysis, the culture plate was further incubated at room temperature in the dark for 20 min, and the luminescence was read with a microplate reader.

KCL22-s = assay: Inhibition of proliferation of KCL22-s cells (CellTiter-Glo); format: cell-based; settings: Homo sapiens, 72 h, imatinib-sensitive strain
From the text: as §1, §2

Ba/F3 BCR-ABL1-T315I = assay: Inhibition of proliferation of Ba/F3 BCR-ABL1-T315I cells (CellTiter-Glo); format: cell-based; settings: Mus musculus, BaF3, 72 h
From the text: as §3, §4

Ba/F3 BCR-ABL1-E255K = assay: Inhibition of proliferation of Ba/F3 BCR-ABL1-E255K cells (CellTiter-Glo); format: cell-based; settings: Mus musculus, BaF3, 72 h
From the text: as §3, §4

Ba/F3 BCR-ABL1-E255V = assay: Inhibition of proliferation of Ba/F3 BCR-ABL1-E255V cells (CellTiter-Glo); format: cell-based; settings: Mus musculus, BaF3, 72 h
From the text: as §3, §4

Chain of ABL1 WT kinase (P00519 whole entry): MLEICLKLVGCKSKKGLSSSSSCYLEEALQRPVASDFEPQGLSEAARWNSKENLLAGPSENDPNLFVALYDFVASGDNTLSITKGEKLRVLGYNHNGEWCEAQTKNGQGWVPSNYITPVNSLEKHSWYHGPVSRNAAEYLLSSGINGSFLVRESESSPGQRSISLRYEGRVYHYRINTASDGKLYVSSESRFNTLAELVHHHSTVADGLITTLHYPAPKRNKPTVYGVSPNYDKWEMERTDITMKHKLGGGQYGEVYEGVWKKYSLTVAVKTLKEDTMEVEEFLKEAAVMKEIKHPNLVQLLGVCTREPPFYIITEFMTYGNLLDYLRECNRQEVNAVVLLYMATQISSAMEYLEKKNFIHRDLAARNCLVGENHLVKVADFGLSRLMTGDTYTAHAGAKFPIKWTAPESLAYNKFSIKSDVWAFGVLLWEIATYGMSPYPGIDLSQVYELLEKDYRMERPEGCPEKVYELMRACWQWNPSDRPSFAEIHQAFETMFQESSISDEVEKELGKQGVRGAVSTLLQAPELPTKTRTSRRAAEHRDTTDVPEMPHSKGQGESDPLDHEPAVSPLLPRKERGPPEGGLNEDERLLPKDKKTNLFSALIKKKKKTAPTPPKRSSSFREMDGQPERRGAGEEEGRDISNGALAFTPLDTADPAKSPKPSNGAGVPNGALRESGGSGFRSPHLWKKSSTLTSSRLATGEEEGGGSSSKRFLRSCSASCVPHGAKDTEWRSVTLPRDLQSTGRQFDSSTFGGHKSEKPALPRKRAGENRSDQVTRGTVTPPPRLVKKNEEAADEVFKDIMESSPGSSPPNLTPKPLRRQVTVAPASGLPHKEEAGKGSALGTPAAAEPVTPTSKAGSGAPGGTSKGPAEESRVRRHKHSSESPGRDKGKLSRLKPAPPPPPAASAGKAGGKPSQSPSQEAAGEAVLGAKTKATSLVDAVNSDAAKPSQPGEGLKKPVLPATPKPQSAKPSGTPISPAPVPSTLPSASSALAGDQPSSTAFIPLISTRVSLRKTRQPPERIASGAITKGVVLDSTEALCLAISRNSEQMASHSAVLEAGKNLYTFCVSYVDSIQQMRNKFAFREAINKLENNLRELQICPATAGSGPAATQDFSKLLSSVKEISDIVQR

SMILES: Cc1ccc(NC(=O)c2ccc(CN3CCN(C)CC3)cc2)cc1Nc1nccc(-c2cccnc2)n1 [Imatinib, reference compound]
T/C ([1]; 75 mg/kg qd): 46.92% | TGI ([1]; 75 mg/kg qd): 56.03%

IC50 (ABL1 WT kinase): 0.43 nM | IC50 (K562): 13 nM | IC50 (Ba/F3 BCR-ABL1-G250E): 5.36 nM | IC50 (Ba/F3 BCR-ABL1-T315I): 46.8 nM | IC50 (Ba/F3 BCR-ABL1-E255K): 26.3 nM | IC50 (Ba/F3 BCR-ABL1-E255V): 7.15 nM
SMILES: C[C@@H]1COC2NC=NC=C2c2cc(C(=O)Nc3ccc(OC(F)(F)Cl)cc3)cc3nc(C(F)F)n1c23.Cc1ccc(S(=O)(=O)O)cc1 (stereo partly drawn) [Example 1, (3R)-N-(4-(chlorodifluoromethoxy)phenyl)-2-(difluoromethyl)-3-methyl-3,4,5a,6-tetrahydro-5-oxa-1,2a,6,8-tetraazabenzo[4,5]cyclooctyl[1,2,3-cd]indene-11-carboxamide p-toluenesulfonate Salt]
IC50 (KCL22-r): 14.6 nM | IC50 (Ku812): 4.13 nM | T/C ([1]; 1.5 mg/kg bid): 7.05% | TGI ([1]; 1.5 mg/kg bid): 98.20% | Tumor volume ([1]; 1.5 mg/kg bid): 143 ± 35 mm^3 | T/C ([1]; 3 mg/kg bid): 0.69% | TGI ([1]; 3 mg/kg bid): 187.08% | Tumor volume ([1]; 3 mg/kg bid): 14 ± 5 mm^3 | T/C ([1]; 3 mg/kg qd): 3.98% | TGI ([1]; 3 mg/kg qd): 127.26% | Tumor volume ([1]; 3 mg/kg qd): 81 ± 19 mm^3 | T/C ([1]; 7.5 mg/kg bid): 0.52% | TGI ([1]; 7.5 mg/kg bid): 190.62% | Tumor volume ([1]; 7.5 mg/kg bid): 11 ± 7 mm^3 | IC50 (KCL22-s): 2.99 nM
